Data reported in ChEMBL document CHEMBL5108019, “Discovery of a novel Pleuromutilin derivative as anti-IPF lead compound via high-throughput assay” (Eur J Med Chem, 2022).
In brackets after ≈: the same amount, converted by molar mass. Activity calls are given as the source filed them. The calls are words filed in the database; no cut-off is given here.

Key:
[1] = biological target: Transforming growth factor beta-1 proprotein/Mothers against decapentaplegic homolog 3 (Mus musculus) (UniProt P04202+Q8BUN5); experiment: Inhibition of TGF-beta1/Smad3 signalling in TGF-beta1 treated mouse NIH3T3 cells transfected with (CAGA)12-Lux reporter gene assessed as suppressive ratio at 10 uM incubated for 18 hrs by luciferase based analysis relative to control; type: cell-based; design: scale not given: the % may be the effect or the level left
Transforming growth factor beta-1 proprotein/Mothers against decapentaplegic homolog 3 (Mus musculus), sequence (P04202 279-390 limits assumed): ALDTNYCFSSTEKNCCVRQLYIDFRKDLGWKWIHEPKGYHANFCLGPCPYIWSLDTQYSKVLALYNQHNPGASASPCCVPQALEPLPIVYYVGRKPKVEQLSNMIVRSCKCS
Transforming growth factor beta-1 proprotein/Mothers against decapentaplegic homolog 3 (Mus musculus), sequence (Q8BUN5 2-425 partner limits assumed): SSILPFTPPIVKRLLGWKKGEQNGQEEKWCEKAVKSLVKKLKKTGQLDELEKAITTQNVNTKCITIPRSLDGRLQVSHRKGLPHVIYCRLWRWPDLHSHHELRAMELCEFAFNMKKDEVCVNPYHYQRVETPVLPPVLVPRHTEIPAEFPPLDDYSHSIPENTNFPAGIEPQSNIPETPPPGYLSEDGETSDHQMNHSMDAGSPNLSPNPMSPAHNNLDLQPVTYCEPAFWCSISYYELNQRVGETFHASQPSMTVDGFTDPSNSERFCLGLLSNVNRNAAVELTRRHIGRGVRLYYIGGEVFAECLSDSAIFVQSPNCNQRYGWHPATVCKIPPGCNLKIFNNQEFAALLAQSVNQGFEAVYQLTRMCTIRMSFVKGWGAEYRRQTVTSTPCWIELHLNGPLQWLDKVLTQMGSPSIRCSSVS

Bacillus subtilis = experiment: Antibacterial activity against Bacillus subtilis assessed as bacterial growth inhibition incubated for 24 hrs; type: functional
Escherichia coli = experiment: Antibacterial activity against Escherichia coli assessed as bacterial growth inhibition incubated for 24 hrs; type: functional
Staphylococcus aureus = experiment: Antibacterial activity against Staphylococcus aureus assessed as bacterial growth inhibition incubated for 24 hrs; type: functional
Mus musculus [2] = experiment: Antifibrotic activity against BLM-induced pulmonary fibrosis in C57BL/6 mouse model assessed as reduction in fibrosis region at 100 mg/kg, po administered once daily starting from day 7 post BLM treatment and measured on day 14 by hematoxylin-eosin and Masson trichrome staining based analysis relative to control; type: functional, organism-based; conditions: time 14.0 day
Mus musculus [3] = experiment: Antifibrotic activity against BLM-induced pulmonary fibrosis in C57BL/6 mouse model assessed as improvement in pulmonary alveolar structure damage at 100 mg/kg, po administered once daily starting from day 7 post BLM treatment and measured on day 14 by H and E staining based analysis; type: functional, organism-based; conditions: time 14.0 day

Row | Compound | Activity [1] [%] | also measured
1 | C=C[C@]1(C)C[C@@H](O)[C@]2(C)[C@H](C)CC[C@]3(C/C(=C\c4ccccc4)C(=O)[C@H]32)[C@@H](C)[C@@H]1O | 15.2 | –
2 | C=C[C@]1(C)C[C@@H](O)[C@]2(C)[C@H](C)CC[C@]3(C/C(=C\CCCC)C(=O)[C@H]32)[C@@H](C)[C@@H]1O | 16.9 | –
3 | C=C[C@]1(C)C[C@@H](O)[C@]2(C)[C@H](C)CC[C@]3(C/C(=C\c4ccccc4N4CCOCC4)C(=O)[C@H]32)[C@@H](C)[C@@H]1O | 20.6 | –
4 | C=C[C@]1(C)C[C@@H](O)[C@]2(C)[C@H](C)CC[C@]3(C/C(=C\C=C\c4ccccc4)C(=O)[C@H]32)[C@@H](C)[C@@H]1O | 34 | –
5 | C=C[C@]1(C)C[C@@H](O)[C@]2(C)[C@H](C)CC[C@]3(C/C(=C\c4cccc(C(=O)O)c4)C(=O)[C@H]32)[C@@H](C)[C@@H]1O | -0.41 | –
6 | C=C[C@]1(C)C[C@@H](O)[C@]2(C)[C@H](C)CC[C@]3(C/C(=C\c4ccc(C(=O)Nc5ccccc5)cc4)C(=O)[C@H]32)[C@@H](C)[C@@H]1O | -27.7 | –
7 | C=C[C@]1(C)C[C@@H](O)[C@]2(C)[C@H](C)CC[C@]3(C/C(=C\c4ccc5ccccc5c4)C(=O)[C@H]32)[C@@H](C)[C@@H]1O | 26.5 | –
8 | C=C[C@]1(C)C[C@@H](O)[C@]2(C)[C@H](C)CC[C@]3(C/C(=C\C(C)(C)C)C(=O)[C@H]32)[C@@H](C)[C@@H]1O | 6.58 | –
9 | C=C[C@]1(C)C[C@@H](O)[C@]2(C)[C@H](C)CC[C@]3(C/C(=C\CCC)C(=O)[C@H]32)[C@@H](C)[C@@H]1O | 0.45 | –
10 | Cc1ccc(=O)n(-c2ccccc2)c1 | – | Activity (Mus musculus [2]): Active; Activity (Mus musculus [3]): Active
11 | C=C[C@]1(C)C[C@@H](OC(=O)CO)[C@]2(C)[C@H](C)CC[C@]3(CCC(=O)[C@H]32)[C@@H](C)[C@@H]1O [PLEUROMULIN] | – | MIC (Bacillus subtilis): 100 µg/mL (≈ 264 µM); MIC (Escherichia coli): 10 µg/mL (≈ 26.4 µM); MIC (Staphylococcus aureus): 5 µg/mL (≈ 13.2 µM)
12 | C=C[C@]1(C)C[C@@H](O)[C@]2(C)[C@H](C)CC[C@]3(C/C(=C\C4CC4)C(=O)[C@H]32)[C@@H](C)[C@@H]1O | -10.8 | –
13 | C=C[C@]1(C)C[C@@H](O)[C@]2(C)[C@H](C)CC[C@]3(C/C(=C\c4ccc(OC)cc4)C(=O)[C@H]32)[C@@H](C)[C@@H]1O | 21 | –
14 | C=C[C@]1(C)C[C@@H](O)[C@]2(C)[C@H](C)CC[C@]3(C/C(=C\c4cccc(C)c4)C(=O)[C@H]32)[C@@H](C)[C@@H]1O | 0.99 | –
15 | C=C[C@]1(C)C[C@@H](O)[C@]2(C)[C@H](C)CC[C@]3(C/C(=C\C4CCCC4)C(=O)[C@H]32)[C@@H](C)[C@@H]1O | 30.6 | –
16 | C=C[C@]1(C)C[C@@H](O)[C@]2(C)[C@H](C)CC[C@]3(C/C(=C\c4cccnc4)C(=O)[C@H]32)[C@@H](C)[C@@H]1O | 0.29 | –
17 | C=C[C@]1(C)C[C@@H](O)[C@]2(C)[C@H](C)CC[C@]3(C/C(=C\C4CCCCC4)C(=O)[C@H]32)[C@@H](C)[C@@H]1O | 32.4 | –
18 | C=C[C@]1(C)C[C@@H](O)[C@]2(C)[C@H](C)CC[C@]3(C/C(=C\c4ccco4)C(=O)[C@H]32)[C@@H](C)[C@@H]1O | 31 | –
19 | C=C[C@]1(C)C[C@@H](O)[C@]2(C)[C@H](C)CC[C@]3(C/C(=C\CC(C)(C)C)C(=O)[C@H]32)[C@@H](C)[C@@H]1O | 18.5 | –
20 | NC(=O)c1ccc(-c2nc(-c3ccccn3)c(-c3ccc4c(c3)OCO4)[nH]2)cc1 | 98.9 | –
21 | C=C[C@]1(C)C[C@@H](O)[C@]2(C)[C@H](C)CC[C@]3(C/C(=C\c4ncccc4F)C(=O)[C@H]32)[C@@H](C)[C@@H]1O | 13.5 | –
22 | C=C[C@]1(C)C[C@@H](O)[C@]2(C)[C@H](C)CC[C@]3(C/C(=C\c4ccc(C(C)(C)C)cc4)C(=O)[C@H]32)[C@@H](C)[C@@H]1O | 13.3 | –
23 | C=C[C@]1(C)C[C@@H](O)[C@]2(C)[C@H](C)CC[C@]3(C/C(=C\c4c(C)cc(C)cc4C)C(=O)[C@H]32)[C@@H](C)[C@@H]1O | 42.5 | –
24 | C=C[C@]1(C)C[C@@H](O)[C@]2(C)[C@H](C)CC[C@]3(C/C(=C\c4ccc(C(F)(F)F)cc4)C(=O)[C@H]32)[C@@H](C)[C@@H]1O | 35.5 | –
25 | C=C[C@]1(C)C[C@@H](O)[C@]2(C)[C@H](C)CC[C@]3(C/C(=C\c4ccccc4C)C(=O)[C@H]32)[C@@H](C)[C@@H]1O | 38.8 | –

More lines, main results first:

Row | Activity [1] [%] | Compound | also measured
26 | 32.8 | C=C[C@]1(C)C[C@@H](O)[C@]2(C)[C@H](C)CC[C@]3(C/C(=C\c4ccc(C)cc4)C(=O)[C@H]32)[C@@H](C)[C@@H]1O | –
27 | 7.27 | C=C[C@]1(C)C[C@@H](O)[C@]2(C)[C@H](C)CC[C@]3(C/C(=C\c4cccc(C(=O)N5CCN(C)CC5)c4)C(=O)[C@H]32)[C@@H](C)[C@@H]1O | –
28 | 35.3 | C=C[C@]1(C)C[C@@H](O)[C@]2(C)[C@H](C)CC[C@]3(C/C(=C\c4ccc(F)cc4)C(=O)[C@H]32)[C@@H](C)[C@@H]1O | –
29 | 41.4 | C=C[C@]1(C)C[C@@H](O)[C@]2(C)[C@H](C)CC[C@]3(C/C(=C\c4ccc(C(=O)O)cc4)C(=O)[C@H]32)[C@@H](C)[C@@H]1O | MIC (Bacillus subtilis): > 1000 µg/mL; MIC (Escherichia coli): > 1000 µg/mL; MIC (Staphylococcus aureus): > 1000 µg/mL
30 | -16.7 | C=C[C@]1(C)C[C@@H](O)[C@]2(C)[C@H](C)CC[C@]3(C/C(=C\c4ccc(C(=O)N5CCCCC5)cc4)C(=O)[C@H]32)[C@@H](C)[C@@H]1O | –
31 | -20.3 | C=C[C@]1(C)C[C@@H](O)[C@]2(C)[C@H](C)CC[C@]3(C/C(=C\c4ccc(C(=O)N(C)C)cc4)C(=O)[C@H]32)[C@@H](C)[C@@H]1O | –
32 | -19.9 | C=C[C@]1(C)C[C@@H](O)[C@]2(C)[C@H](C)CC[C@]3(C/C(=C\c4ccc(C(=O)N5CCOCC5)cc4)C(=O)[C@H]32)[C@@H](C)[C@@H]1O | –
33 | 40.3 | C=C[C@]1(C)C[C@@H](O)[C@]2(C)[C@H](C)CC[C@]3(C/C(=C\c4ccc(C(=O)N5CCN(C)CC5)cc4)C(=O)[C@H]32)[C@@H](C)[C@@H]1O | MIC (Bacillus subtilis): > 1000 µg/mL; MIC (Escherichia coli): > 1000 µg/mL; MIC (Staphylococcus aureus): > 1000 µg/mL
34 | -9.93 | C=C[C@]1(C)C[C@@H](O)[C@]2(C)[C@H](C)CC[C@]3(C/C(=C\c4ccc(C(=O)NC5CCN(C)CC5)cc4)C(=O)[C@H]32)[C@@H](C)[C@@H]1O | –
35 | 46 | C=C[C@]1(C)C[C@@H](O)[C@]2(C)[C@H](C)CC[C@]3(C/C(=C\c4ccc(SC)cc4)C(=O)[C@H]32)[C@@H](C)[C@@H]1O | –
36 | 48.9 | C=C[C@]1(C)C[C@@H](O)[C@]2(C)[C@H](C)CC[C@]3(C/C(=C\c4ccc(Cl)cc4)C(=O)[C@H]32)[C@@H](C)[C@@H]1O | –
37 | -3.36 | C=C[C@]1(C)C[C@@H](O)[C@]2(C)[C@H](C)CC[C@]3(C/C(=C\c4cccc(C(=O)NC5CCCCC5)c4)C(=O)[C@H]32)[C@@H](C)[C@@H]1O | –
